The text below walks through data of patent US11903956B2, “Compositions and products for infectious or inflammatory diseases or conditions” (B&H BIOTECHNOLOGIES, LLC, priority 2013, dated 2024).

Experiment [1] deals with dogs suffered from respiratory infections. Nature of the experiment: Treatment of respiratory infections of dogs. The format is in vivo. On the procedure:
The formula-3.2 as prepared above in 6.1 was used via oral administration for the prevention or treatment of respiratory infections or disorders of dogs.
Two groups of dogs suffered from respiratory infections with the symptoms of runny nose, coughing, chills, fever and weakness/fatigue (etc.) were treated once per day via oral administration or intramuscular injection with: 1) Tulathromycin according to manufacture's instruction (antibiotic group, n=6); 2) 1.5 ml/kg of body weight of the formula-3.2 (n =6); and 3) Tulathromycin and 1.5 ml/kg of body weight of the formula-3.2 (n=9).

Experiment [2] deals with respiratory infections accompanied with the respiratory syndrome (asthma). Nature of the experiment: Treatment of respiratory infections or disorders of piglets. The format is in vivo. The text has this: The formulations of 1.2 and 3.2 as prepared above in 6.1 were used for the prevention and treatment of respiratory infections or disorders of piglets. The ORS alone and a commercially available antibiotic product, Timicosin were used as controls. In addition, combination of formula 3.2 and Timicosin was used for the treatment of respiratory infections or disorders of piglets.
Weaning piglets (10˜15 kg, aged 5-7 weeks) suffered from respiratory infections accompanied with the respiratory syndrome characterized by asthma-like symptoms (difficulty with breath). The sick piglets were treated separately once a day via oral administration or intramuscular injection with 1) Tilmicosin according to manufacture's instructions (n=39); 2) 1 ml/kg of body weight of the formula-3.2 (n=36); and 3) Tilmicosin and 1 ml/kg of body weight of the formula-3.2 (n=41).

In experiment [3] the test system is dogs suffered from acute diarrhea. Kind of experiment: Treatment of diarrhea of dogs with formula-2.2. The format is in vivo. On the procedure: Two groups of dogs suffered from acute diarrhea with the symptoms of vomiting, depression, dehydration, listlessness, an increased frequency of diarrhea were treated once per day via oral administration or intramuscular injection with: 1) Cephradine according to manufacture's instruction (antibiotic group, n=15); and 2) 1.5 ml/kg of body weight of the formula-2.2 (n=10). Eight out ten (8/10, 80%) of the dogs stopped diarrhea after one dose of the treatment with formula-2.2.

The test system of experiment [4] is influenza virus of A/PR/8/34(H1N1). The format is in vivo, mouse.
The test system of experiment [5] is sucking or weaning piglets with various diarrheas or infective gastroenteritis. Nature of the experiment: Treatment of piglet diarrhea at ages 5-40 days with formula-2.2. The format is in vivo. On the procedure:
The formula-2.2 as prepared above in 6.1 was used for the treatment of diarrhea piglets at ages 5-40 days.
Two groups of sucking or weaning piglets with various diarrheas or infective gastroenteritis at ages of 5-40 days were treated once per day via oral administration with: 1) Enrofloxacin according to manufacture's instruction (antibiotic group, n=139); and 2) 1 ml/kg of body weight of the formula-2.2 (n=262).

Another experiment deals with rhesus rotavirus (RRV). Nature of the experiment: Treatment of rotavirus infection of mouse pups with formulations. Particulars: RRV-infected mouse pups.
Experiment [6] relates to sucking piglets with yellow watery diarrhea or infective gastroenteritis. Kind of experiment: Treatment of piglet diarrhea at ages 1-5 days with formulations. The format is in vivo. The text has this: Diarrhea is a common disorder with sucking or weaning piglets. Viral or bacterial infections are common causes of piglet diarrhea. Piglets with viral diarrhea usually have yellow watery stools and piglets with bacterial diarrhea usually have gray stools. Sometimes, yellow diarrhea is accompanied with vomiting showing the characteristic of infective gastroenteritis. Often, piglet diarrhea or infective gastroenteritis is caused by mixed infection of viruses and bacteria. Piglets younger than one week could have a serious viral diarrhea or infective gastroenteritis with high death rates from about 70% to over 90%.
The formulations of 1.2, 2.2, 3.2 and 4.2 as prepared above in 6.1 were used for the treatment of diarrhea piglets at ages 1-5 days. […] In addition, combination of formula 1.2 and Enrofloxacin was also used for the treatment of piglet diarrhea.
Seven groups of sucking piglets with yellow watery diarrhea or infective gastroenteritis at ages of 1-5 days were treated once per day via oral administration or muscular injection with: 1) 1 ml/kg of body weight of ORS alone (control group, n=50); 2) Enrofloxacin according to manufacture's instruction (antibiotic control, n=69); 3) 1 ml/kg of body weight of the formula-1.2 (n=49); 4) 1 ml/kg of body weight of the formula-2.2 (n=82); 5) 1 ml/kg of body weight of the formula-3.2 (n=55); 6) 1 ml/kg of body weight of the […]; and 7) 1 ml/kg of body weight of the formula-1.2 plus Enrofloxacin (n=32).

In the case of `CCCNC[C@]1(O)[C@H](C)O[C@@H](O[C@H]2[C@H](C)[C@@H](O[C@@H]3O[C@H](C)C[C@H](N(C)C)[C@H]3O)[C@](C)(O)C[C@@H](C)CN[C@H](C)[C@@H](O)[C@](C)(O)[C@@H](CC)OC(=O)[C@@H]2C)C[C@@]1(C)OC` [Tulathromycin], the “doses needed for getting recovered” value in experiment [1] (dog, in vivo) is listed as 4-7 doses. Moreover, the “Later Rec, number of dogs” value in experiment [1] (dogs with respiratory infections) is given as 5. In addition, in experiment [1] (dogs with respiratory infections, once per day), the “Early Rec (recovered within 48-72 hours), number of dogs” value was 1. This compound yielded an OR in experiment [1] (early recovery) of 0.04. Also, the “Rate (%) of early recovery” value in experiment [1] (recovered within 48-72 hours) was determined as 16.7%.
Regarding `CC[C@H]1OC(=O)C[C@@H](O)[C@H](C)[C@@H](O[C@@H]2O[C@H](C)[C@@H](O)[C@H](N(C)C)[C@H]2O)[C@@H](CCN2C[C@H](C)C[C@H](C)C2)C[C@@H](C)C(=O)/C=C/C(C)=C/[C@@H]1CO[C@@H]1O[C@H](C)[C@@H](O)[C@@H](OC)[C@H]1OC` [Tilmicosin], the “doses needed for getting recovered” value in experiment [2] (in vivo) is 4-5 doses. In addition, in experiment [2] (piglets with respiratory syndrome), the “Odds Ratio of death” value is on record as 3.63. In experiment [2] (weaning piglets with respiratory syndrome (asthma)), the “Rate (%) death” value stood at 28.2%. Moreover, the “Death (number of piglets)” value in experiment [2] (weaning piglets with respiratory syndrome (asthma), once a day) is 11.
Take `CC1=C(C(=O)O)N2C(=O)[C@@H](NC(=O)[C@H](N)C3=CCC=CC3)[C@H]2SC1` [Cephradine]: the “Later Rec (recovered after 24 hours), number of dogs” value in experiment [3] (dogs with acute diarrhea) is 14. Besides, the “Early Rec (recovered within 24 hours), number of dogs” value in experiment [3] (dogs with acute diarrhea, once per day) is 1. This compound also returned an OR in experiment [3] (early recovery) of 0.02. The “Rate (%) of early recovery” value in experiment [3] (recovered within 24 hours) came out at 6.67%.
`CCOC(=O)C1=C[C@@H](OC(CC)CC)[C@H](NC(C)=O)[C@@H](N)C1` [Tamiflu]: in experiment [4] (influenza infection of mice), the “Odds Ratio of death” value amounted to 0.36. For the same compound, in experiment [4] (mouse, in vivo, ip), the “Death (number of mice)” value is reported as 21 and the “Rate (%) death rate” value is given as 70%.
In the case of `CCN1CCN(c2cc3c(cc2F)c(=O)c(C(=O)O)cn3C2CC2)CC1` [Enrofloxacin], the “day at which majority of piglets stopped diarrhea” value in experiment [5] (after 4-5 dose treatment (one dose every day)) lay in the range of 4 to 5 days. In addition, the “Later Rec (recovered after 48 hours), number of piglets” value in experiment [5] (diarrhea piglets aged 5-40 days) amounted to 136. Also, the “Early Rec (recovered within 48 hours), number of piglets” value in experiment [5] (diarrhea piglets aged 5-40 days, oral once per day) was 3. In experiment [5] (early recovery), this compound came in with an OR of 0.001. In addition, the “Rate (%) of early recovery” value in experiment [5] (recovered within 48 hours) is reported as 2.16%. Besides, in the experiment with rhesus rotavirus (RRV), the “OR(effect)” value was found to be 0.06; the “OR(risk) of death” value amounted to 0.76; the duration of diarrhea lay in the range of 3 to 4 days; the “outcome in words (diarrhea severity, death rate, efficacy)” value is recorded as “serious”. Moreover, the “Not effect (number of pups)” value in the experiment with rhesus rotavirus (RRV) (50 μl oral once per day) is reported as 48. In addition, the “Effect (number of pups)” value in the experiment on rhesus rotavirus (RRV) (50 μl oral once per day, […]) came to 3. In the experiment on rhesus rotavirus (RRV) (kept 3 weeks), the “Death (number of pups)” value came to 12, the “Death Rate(%)” value is recorded as 23.5% and the “Not died (number of pups)” value is given as 39. In the experiment with rhesus rotavirus (RRV) ([…]), the “Rate(%) of effect” value is 5.88%. In experiment [6] (diarrhea piglets aged 1-5 days), the “No death (number of piglets)” value is 21, the “OR(risk) of death” value amounted to 0.19 and the “Rate (%) death rate” value is recorded as 69.6%. The “Death (number of piglets)” value in experiment [6] (diarrhea piglets aged 1-5 days, once per day) is on record as 48. Moreover, in experiment [6] (one dose treatment every day), the “day after treatment at which majority of piglets stopped diarrhea” value was in the range of 4 to 5 days.
